In US7767676B2, “Dihydro-1,3,5-triazine amine derivatives and their therapeutic uses” (Merck Sante, priority 2000, dated 2010):
Structures can show the parent of a compound that is named as a salt. Where two headings read alike, the source gives them in different places.

What was measured:
[1] = test system: non-insulin-dependent diabetes induced in rats by Streptozotocin; assay: Antidiabetic activity in the Nostz rat (non-insulin-dependent diabetes induced by neonatal streptozotocin), glycaemia after oral treatment; type: in vivo; conditions: diabetic rats, blood 2 h after last administration; for change in vivo at 20 mg/kg: 20 mg/kg/D oral; for change in vivo at 200 mg/kg: 200 mg/kg/D oral
Method: Study of the Antidiabetic Activity in the Nostz Rat
The antidiabetic activity of the compounds of formula (I) administered orally was determined on an experimental model of non-insulin-dependent diabetes induced in rats by Streptozotocin.
The non-insulin-dependent diabetes model is obtained in rats by neonatal injection (on the day of birth) of streptozotocin.
The diabetic rats used were 8 weeks old. The animals were kept, from the day of their birth to the day of the experiment, in an animal house at a controlled temperature of 21 to 22° C. and subjected to a fixed cycle of light (from 7 am to 7 pm) and darkness (from 7 pm to 7 am). Their diet consisted of a maintenance diet, water and food were provided “ab libitum”, with the exception of the 2 hours of fasting preceding the tests when the food is withdrawn (postabsorptive state).
The rats were treated by the oral route for one (D1) or four (D4) days with the product to be tested. Two hours after the last administration of the product and 30 minutes after anaesthetizing the animals with sodium pentobarbital (Nembutal a), 300 μl of blood sample are collected from the end of the tail.
By way of example, results obtained are assembled in Table III.

[2] = test system: Maillard reaction of bovine albumin with methylglyoxal; assay: Antiglycation activity: fructosamine assay after incubation of albumin with methylglyoxal; type: biochemical; conditions: compound 10 mM, bovine albumin 6.6 mg/ml, 1 mM methylglyoxal, pH 7.4, 37° C., 6 days; relative to incubation without compound
Method: Study of the Antiglycation Activity
The compounds (I) are also capable of inhibiting the so-called Maillard reactions by “capturing effect” on the α-dicarbonyl-containing derivatives such as glyoxal—this is the antiglycation effect. This Maillard reaction inhibiting effect of the compounds according to the invention was studied in vitro by assaying ketamines (“fructosamines”) produced during the incubation of albumin with methylglyoxal in the presence or otherwise of a compound of formula (I) according to the invention.
A solution of bovine albumin at 6.6 mg/ml in 0.2 M phosphate buffer, pH 7.4, is incubated with 1 mM methylglyoxal in the presence or otherwise of a compound according to the invention at a concentration of 10 mM. The incubation is carried out under sterile conditions at 37° C. for 6 days. At the end of the incubation period, the quantity of ketamines is measure with a commercially available fructosamine assay kit (“FRA” kit, product reference: 0757055, Roche S. A. products) according to the manufacturer's instructions.
By way of example, results obtained under these experimental conditions are assembled in Table IV: level of fructosamine after incubation of the albumin with the methylglyoxal in the presence of compounds (I) according to the invention in relation to the level of fructosamine when albumin is incubated with methylglyoxal in the absence of the compounds (I) according to the invention.

[3] = 24 h, 1 day of treatment, read-out: percentage variation of glycaemia at D1 relative to D0
[4] = 96 h, 4 days of treatment, read-out: percentage variation of glycaemia at D4 relative to D0

CN(C)C1=NC(c2ccco2)N=C(N)N1 (stereo not drawn) [Compound 40]
change in vivo at 20 mg/kg [1, 3]: -8%
change in vivo at 200 mg/kg [1, 3]: -18%
change in vivo at 20 mg/kg [1, 4]: -12%
change in vivo at 200 mg/kg [1, 4]: -18%
Reduction in the level of fructosamines (%) [2]: 66%

CN(C)C1=NC(C2CCCCC2)N=C(N)N1 (stereo not drawn) [Compound 34]
change in vivo at 20 mg/kg [1, 3]: -5%
change in vivo at 200 mg/kg [1, 3]: -6%
change in vivo at 20 mg/kg [1, 4]: -15%
change in vivo at 200 mg/kg [1, 4]: -21%
Reduction in the level of fructosamines (%) [2]: 64%

CN(C)C1=NC(C2CC=CCC2)N=C(N)N1 (stereo not drawn) [Compound 45]
Reduction in the level of fructosamines (%) [2]: 67%

CN(C)C1=NCN=C(N)N1 [Compound 33]
change in vivo at 20 mg/kg [1, 3]: -7%
change in vivo at 200 mg/kg [1, 3]: -9%
change in vivo at 20 mg/kg [1, 4]: -6%
change in vivo at 200 mg/kg [1, 4]: -14%
Reduction in the level of fructosamines (%) [2]: 79%

CN(C)C1=NC(c2ccccc2)N=C(N)N1 (stereo not drawn) [Compound 10]
Reduction in the level of fructosamines (%) [2]: 80%

CN(C)C1=NC(c2ccc(O)cc2)N=C(N)N1 (stereo not drawn) [Compound 13]
Reduction in the level of fructosamines (%) [2]: 95%
melting point: > 260 °C

CCC1N=C(N)NC(N(C)C)=N1 (stereo not drawn) [Compound 1, 2-amino-3,6-dihydro-4-dimethylamino-6-ethyl-1,3,5-triazine hydrochloride]
change in vivo at 20 mg/kg [1, 3]: -7%
change in vivo at 200 mg/kg [1, 3]: -13%
change in vivo at 20 mg/kg [1, 4]: -2%
change in vivo at 200 mg/kg [1, 4]: -15%
Reduction in the level of fructosamines (%) [2]: 62%

COc1ccc(C2N=C(N)NC(N(C)C)=N2)cc1 (stereo not drawn) [Compound 11]
Reduction in the level of fructosamines (%) [2]: 89%

CN(C)C1=NC(c2ccc(O)cc2)N=C(N)N1 (stereo not drawn) [Compound 12]
Reduction in the level of fructosamines (%) [2]: 90%

CC(C)CC1N=C(N)NC(N(C)C)=N1 (stereo not drawn) [Compound 43]
change in vivo at 20 mg/kg [1, 3]: -4%
change in vivo at 200 mg/kg [1, 3]: -12%
change in vivo at 20 mg/kg [1, 4]: -16%
change in vivo at 200 mg/kg [1, 4]: -17%
Reduction in the level of fructosamines (%) [2]: 68%

CC1N=C(N)NC(N(C)C)=N1 (stereo not drawn) [Compound 18]
change in vivo at 20 mg/kg [1, 3]: -6%
change in vivo at 200 mg/kg [1, 3]: -29%
change in vivo at 20 mg/kg [1, 4]: -4%
change in vivo at 200 mg/kg [1, 4]: -28%
Reduction in the level of fructosamines (%) [2]: 69%

CN(C)C1=NC(C(F)(F)F)N=C(N)N1 (stereo not drawn) [Compound 36]
Reduction in the level of fructosamines (%) [2]: 66%

CN(C)C1=NC(Cc2ccccc2)N=C(N)N1 (stereo not drawn) [Compound 37]
change in vivo at 20 mg/kg [1, 3]: -7%
change in vivo at 200 mg/kg [1, 3]: -10%
change in vivo at 20 mg/kg [1, 4]: -8%
change in vivo at 200 mg/kg [1, 4]: -15%
Reduction in the level of fructosamines (%) [2]: 65%
